Patent US20260085081A1, “PHOSPHATIDYLAMINE COMPOUNDS INCLUDING A PLURALITY OF TERTIARY AMINO GROUP STRUCTURES AND COMPOSITIONS THEREOF” (PEKING UNIVERSITY, priority 2022, published 2026)

What was measured:
[1] = tested on: Fluc-mRNA (luciferase expression); experiment: In vivo transfection efficiency of Fluc-mRNA lipid nanoparticles after intramuscular injection; set-up: species or system mice; settings: for in vivo transfection (expression, FIG. 5): weight ratio lipid nanoparticle/RNA 10:1, DOPE or DSPC group; for in vivo transfection (expression, FIG. 5) / expression in vivo compared with control MC3: 3 μg Fluc-mRNA/mouse; for expression in vivo compared with control MC3 / enhancement of in vivo expression with respect to control MC3: DOPE group, weight ratio 10:1; for Intramuscular injection (PL/MC3) expression strength level: ratio of expression PL/MC3; for enhancement of in vivo expression with respect to control MC3: 3 g Fluc-mRNA/mouse
Procedure: 6 h after intramuscular injection of mRNA LNPs, mice were injected intraperitoneally with 0.2 mL […] (20 mg/mL PBS solution). After 10 min, mice were anesthetized with isoflurane in oxygen in a ventilated anesthesia room and imaged with an imaging system (IVIS, PerkinElmer), and luminescence was quantified using Living Image software (PerkinElmer).

NIH-3T3 cells = experiment: Transfection efficiency of lipid nanoparticles in NIH-3T3 cells; format: cell-based, murine
Procedure: The prepared cationic compounds (PL1, PL4, PL8, PL10, PL11, PL12, PL13, PL14, PL17, PL18, PL23, PL24, PL26, PL27, PL28, PL29, PL30, PL31, PL32, PL33, PL36, PL38, PL41, PL44, PL45, PL53, PL54, PL55, PL56, PL57, PL58, PL59, PL60, PL61, PL78, PL79, PL93, PL94, PL95, PL96, PL97, PL103), DOPE/DSPC, cholesterol, and DMG-PEG2000 are prepared with ethanol in a molar ratio of 35:16:46.5:2.5 to form the ethanol phase, and RNA is formulated into the aqueous phase with 50 mM citrate buffer solution at pH=4. Lipid nanoparticles are obtained by microfluidic mixing at aqueous phase:ethanol phase=3:1 (v/v), followed by dialysis purification in PBS at pH 7.4 overnight to remove ethanol.
Determination process included: preparing a 96-well plate, inoculating cells (4000 cells/well), adding 100 μL of medium, incubating at 37° C. overnight; after 24 h, adding lipid nanoparticles diluted with medium (achieving the final concentration of RNA of 10 µg/mL), incubating at 37° C. for 24 h, and then adding 50 μL of specialized luciferase substrate to each well, followed by detection using by a microplate reader (chemiluminescence).
FIG. 1A and FIG. 1B illustrate transfection of lipid nanoparticles of a DOPE group and a DSPC group in NIH3T3 cells according to some embodiments of the present disclosure. Specifically, for compounds PL1, PL4, PL6, PL8, PL10, PL11, PL12, lipid nanoparticles are prepared by DOPE and DSPC, respectively, according to an […] (Example 44). The transfection efficiency of these two groups of lipid nanoparticles in cells is first evaluated, and murine fibroblasts NIH-3T3 are selected for incubation (Example 47), and the results are shown in FIG. 1A and FIG. 1B. […] PL10, PL11, and PL12 all include two tertiary amino groups.

[2] = Summary of the strongest expressions over the administration routes; settings: strongest level of the three administrations
Description: (§1) Finally, the expression levels of lipid nanoparticles with a plurality of tertiary amine groups from the embodiments of the present disclosure after intramuscular injection, white adipocyte administration, and intraperitoneal injection are summarized, and compared with lipid nanoparticles prepared from commercially available cationic lipids MC3 and SM102. […] However, the expression rates of the phosphatidylamine lipids with a plurality of tertiary amine groups from embodiments of the present disclosure are higher than that of SM102.

white adipocyte = experiment: White adipocyte administration, expression relative to SM102; format: cell-based; settings: for White adipocyte administration (PL/SM102) expression strength level: ratio of expression PL/SM102; for expression compared with control SM102: white adipocyte administration
Description: as §1

adipose tissue = experiment: Intraperitoneal injection of Fluc-mRNA LNPs, expression and distribution; format: in vivo, mice; settings: for Intraperitoneal injection (PL/SM102) expression strength level: ratio of expression PL/SM102; for expression compared with control SM102: intraperitoneal injection
Procedure: FIG. 10 illustrates the effect of Fluc-mRNA LNPs composed of different structural cationic lipids on the mRNA delivery efficiency after intraperitoneal administration according to some embodiments of the present disclosure. Targeting and expression of PL lipids on adipose tissue after intraperitoneal administration is also evaluated. […] That is to say, the PL lipid structure with the plurality of tertiary amino group structures may enhance the selective targeting of visceral adipocytes. […]
as §1

Structure (SMILES) | in vivo transfection (expression, FIG. 5) [1] | transfection efficiency relative to MC3 LNP (NIH-3T3 cells; DOPE group LNP) | expression in vivo compared with control MC3 [1] | Intramuscular injection (PL/MC3) expression strength level [1] | Summary of the strongest expressions [2] | White adipocyte administration (PL/SM102) expression strength level (white adipocyte) | transfection efficiency relative to MC3 LNP (NIH-3T3 cells; DSPC group LNP) | Intraperitoneal injection (PL/SM102) expression strength level (adipose tissue) | enhancement of in vivo expression with respect to control MC3 [1] | expression compared with control SM102 (white adipocyte) | expression compared with control SM102 (adipose tissue)
CCCCC/C=C\C/C=C\CCCCCCCCOP(=O)(NCCCN(C)C)OCCCCCCCC/C=C\C/C=C\CCCCC [PL1] | expressed | 16 fold |  |  |  |  |  |  |  |  | 
CCCCC/C=C\C/C=C\CCCCCCCCOP(=O)(NCCN(CCCCCCCCCCCC)CCCN(C)C)OCCCC(=O)OCCCCCCCCCCC (centres unmarked) [PL11] | expressed |  | close to that of MC3 | C (C: ≥0.1 and <1) | C (C: ≥0.1 and <1) | C (C: ≥0.1 and <1) | 3 fold |  |  |  | 
CCCCC/C=C\C/C=C\CCCCCCCCOP(=O)(NCCCN(CCCN(CC(O)CCCCCCCCCC)CC(O)CCCCCCCCCC)CC(O)CCCCCCCCCC)OCCCCCCCC/C=C\C/C=C\CCCCC (centres unmarked) [PL18] | expressed |  |  | A (A: ≥2) | A (A: ≥2) | C (C: ≥0.1 and <1) |  | D (D: <0.1) |  |  | 
CCCCC/C=C\C/C=C\CCCCCCCCOP(=O)(NCCCN1CCN(CCCN(CC(O)CCCCCCCCCC)CC(O)CCCCCCCCCC)CC1)OCCCCCCCC/C=C\C/C=C\CCCCC (centres unmarked) [PL23] | expressed |  |  | A (A: ≥2) | A (A: ≥2) | C (C: ≥0.1 and <1) |  | C (C: ≥0.1 and <1) |  |  | 
CCCCCCCCCCCCN(CCCCCCCCCCCC)CCCN1CCN(CCCNP(=O)(OCCCCCCOC(=O)C(CC)CCCC)OCCCCCCOC(=O)C(CC)CCCC)CC1 (centres unmarked) [PL53] | expressed |  | better than that of control MC3 | A (A: ≥2) | A (A: ≥2) | B (B: ≥1 and <2) |  | C (C: ≥0.1 and <1) | an order of magnitude enhancement | superior to that of the control SM102 | 
CCCCCCCCCCCCN(CCCCCCCCCCCC)CCCN1CCN(CCCNP(=O)(OCCCCCCOC(=O)C(CC)CCCCCC)OCCCCCCOC(=O)C(CC)CCCCCC)CC1 (centres unmarked) [PL54] | expressed |  |  | A (A: ≥2) | A (A: ≥2) | B (B: ≥1 and <2) |  | B (B: ≥1 and <2) |  | superior to that of the control SM102 | superior to that of the control SM102
CCCCCCCCCCCCN(CCCCCCCCCCCC)CCCN1CCN(CCCNP(=O)(OCCCCCCOC(=O)C(CCCCCC)CCCCCCCC)OCCCCCCOC(=O)C(CCCCCC)CCCCCCCC)CC1 (centres unmarked) [PL55] | expressed |  | better than that of control MC3 | A (A: ≥2) | A (A: ≥2) | B (B: ≥1 and <2) |  | B (B: ≥1 and <2) | an order of magnitude enhancement | superior to that of the control SM102 | superior to that of the control SM102
CCCCCCCCCCCCN(CCCCCCCCCCCC)CCCN1CCN(CCCNP(=O)(OCCCCCCCCOC(=O)C(CC)CCCC)OCCCCCCCCOC(=O)C(CC)CCCC)CC1 (centres unmarked) [PL56] | expressed |  | better than that of control MC3 | A (A: ≥2) | A (A: ≥2) | B (B: ≥1 and <2) |  | A (A: ≥2) | an order of magnitude enhancement | superior to that of the control SM102 | superior to that of the control SM102
CCCCCCCCCCCCN(CCCCCCCCCCCC)CCCN1CCN(CCCNP(=O)(OCCCCCCCCOC(=O)C(CC)CCCCCC)OCCCCCCCCOC(=O)C(CC)CCCCCC)CC1 (centres unmarked) [PL57] | expressed |  | better than that of control MC3 | A (A: ≥2) | A (A: ≥2) | B (B: ≥1 and <2) |  | A (A: ≥2) | an order of magnitude enhancement | superior to that of the control SM102 | superior to that of the control SM102
CCCCCCCCCCCCN(CCCCCCCCCCCC)CCCN1CCN(CCCNP(=O)(OCCCCCCCCOC(=O)C(CCCCCC)CCCCCCCC)OCCCCCCCCOC(=O)C(CCCCCC)CCCCCCCC)CC1 (centres unmarked) [PL58] | expressed |  |  | A (A: ≥2) | A (A: ≥2) | C (C: ≥0.1 and <1) |  | C (C: ≥0.1 and <1) |  |  | 
CC/C=C\C/C=C\C/C=C\C/C=C\C/C=C\CCCC(=O)OCCCCCCOP(=O)(NCCCN1CCN(CCCN(CCCCCCCCCCCC)CCCCCCCCCCCC)CC1)OCCCCCCOC(=O)CCC/C=C\C/C=C\C/C=C\C/C=C\C/C=C\CC [PL60] |  |  |  |  | C (C: ≥0.1 and <1) | C (C: ≥0.1 and <1) |  | D (D: <0.1) |  |  | 
CCC/C=C\C/C=C\C/C=C\C/C=C\C/C=C\C/C=C\CCC(=O)OCCCCCCOP(=O)(NCCCN1CCN(CCCN(CCCCCCCCCCCC)CCCCCCCCCCCC)CC1)OCCCCCCOC(=O)CC/C=C\C/C=C\C/C=C\C/C=C\C/C=C\C/C=C\CCC [PL61] |  |  |  |  | C (C: ≥0.1 and <1) | C (C: ≥0.1 and <1) |  | D (D: <0.1) |  |  | 
CCCCCCCCCCC(O)CN(CCCN1CCN(CCCNP(=O)(OCCCCCCCCOC(=O)C(CC)CCCC)OCCCCCCCCOC(=O)C(CC)CCCC)CC1)CC(O)CCCCCCCCCC (centres unmarked) [PL78] |  |  |  |  | B (B: ≥1 and <2) | B (B: ≥1 and <2) |  | B (B: ≥1 and <2) |  | superior to that of the control SM102 | superior to that of the control SM102
CC/C=C\C/C=C\C/C=C\C/C=C\C/C=C\CCCC(=O)OCCCCCCOP(=O)(NCCCN1CCN(CCCN(CC(O)CCCCCCCCCC)CC(O)CCCCCCCCCC)CC1)OCCCCCCOC(=O)CCC/C=C\C/C=C\C/C=C\C/C=C\C/C=C\CC (centres unmarked) [PL79] |  |  |  |  | B (B: ≥1 and <2) | B (B: ≥1 and <2) |  | C (C: ≥0.1 and <1) |  | superior to that of the control SM102 | 
